Assay results published in patent US10377774B2 (JINAN UNIVERSITY, priority 2013, dated 2019).
Marks after values point to notes of the source that are not given here.

How the values were obtained:
[1] = system: human non-small-cell lung cancer cell line A549; test: MTT cell growth inhibition, A549; assay type: cell-based; conditions: Homo sapiens; A549, MTT assay, 72 h; read-out: IC50, growth of tumor cell line
From the text: (§3) Experimental method: Cell lines (human non-small-cell lung cancer cell line A549, human colon cancer cell line LOVO, human nasopharyngeal carcinoma cell line CNE-2, human liver cancer cell line HepG2, human cervical carcinoma cell line Hela, human breast cancer cell lines MCF-7 and MDA-MB-231, human gastric carcinoma cell line NCI-N87, human prostatic cancer cell lines PC-3 and DU145, human leukemia cell line K562, human melanoma cell line A375, human neuroblastoma cell line SH-SY5H, human promyelocytic leukemia cell line HL-60, 5-FU-resistant human hepatocellular carcinoma cell line BEL-7402/5-Fu, doxorubicin-resistant hepatocellular carcinoma cell line HepG2/ADM, doxorubicin-resistant human breast cancer cell lines MCF-7/ADR) at logarithmic phase were resuspended in RPMI 1640 medium (containing 10% fetal bovine serum, 100 U/mL penicillin-streptomycin). Then, 100 μL of cells (cell concentration was 5×10^5/mL) were seeded into 96 wells plate. After 24 h incubation at 37° C. with 5% CO2, tested compounds were added (the control group without compound) for an additional 72 h incubation. After that, 30 μL of MTT [3-(4,5-Dimethylthiazol-2-yl)-2,5-diphenyltetrazolium bromide] solution (5 mg/mL) was added into each well and incubated for another 4 h at 37° C. and then the formazan crystals were solubilized with 100 μL DMSO. Finally, absorbance of each well was determined at 570 nm by a microplate reader (Thermo).
(§4) The concentration required to inhibit cell growth by 50% (IC50) was calculated from survival curves.

[2] = system: human colon cancer cell line LOVO; test: MTT cell growth inhibition, LOVO; assay type: cell-based; conditions: Homo sapiens; LOVO (FAPα positive), MTT assay, 72 h; read-out: IC50, growth of tumor cell line
From the text: as §3, §4

[3] = system: human nasopharyngeal carcinoma cell line CNE-2; test: MTT cell growth inhibition, CNE-2; assay type: cell-based; conditions: Homo sapiens; CNE-2, MTT assay, 72 h; read-out: IC50, growth of tumor cell line
From the text: as §3, §4

[4] = system: human liver cancer cell line HepG2; test: MTT cell growth inhibition, HepG2; assay type: cell-based; conditions: Homo sapiens; HepG2, MTT assay, 72 h; read-out: IC50, growth of tumor cell line
From the text: as §3, §4

[5] = system: human cervical carcinoma cell line Hela; test: MTT cell growth inhibition, Hela; assay type: cell-based; conditions: Homo sapiens, MTT assay, 72 h, read-out: IC50, growth of tumor cell line
From the text: as §3, §4

[6] = system: human breast cancer cell line MCF-7; test: MTT cell growth inhibition, MCF-7; assay type: cell-based; conditions: Homo sapiens, MCF7; MCF-7, MTT assay, 72 h; read-out: IC50, growth of tumor cell line
From the text: as §3, §4

[7] = system: human breast cancer cell line MDA-MB-231; test: MTT cell growth inhibition, MDA-MB-231; assay type: cell-based; conditions: Homo sapiens; MDA-MB-231, MTT assay, 72 h; read-out: IC50, growth of tumor cell line
From the text: as §3, §4

[8] = system: human gastric carcinoma cell line NCI-N87; test: MTT cell growth inhibition, NCI-N87; assay type: cell-based; conditions: Homo sapiens; NCI-N87, MTT assay, 72 h; read-out: IC50, growth of tumor cell line
[9] = system: human prostatic cancer cell line PC-3; test: MTT cell growth inhibition, PC-3; assay type: cell-based; conditions: Homo sapiens; PC-3, MTT assay, 72 h; read-out: IC50, growth of tumor cell line
From the text: as §3, §4

[10] = system: human prostatic cancer cell line DU145; test: MTT cell growth inhibition, DU-145; assay type: cell-based; conditions: Homo sapiens; DU-145, MTT assay, 72 h; read-out: IC50, growth of tumor cell line
[11] = system: human leukemia cell line K562; test: MTT cell growth inhibition, K562; assay type: cell-based; conditions: Homo sapiens; K562, MTT assay, 72 h; read-out: IC50, growth of tumor cell line
From the text: as §3, §4

[12] = system: human melanoma cell line A375; test: MTT cell growth inhibition, A375; assay type: cell-based; conditions: Homo sapiens, A-375; A375, MTT assay, 72 h; read-out: IC50, growth of tumor cell line
[13] = system: human neuroblastoma cell line SH-SY5H; test: MTT cell growth inhibition, SH-SY5H; assay type: cell-based; conditions: Homo sapiens, Neuroblastoma cell, MTT assay, 72 h, read-out: IC50, growth of tumor cell line
[14] = system: human promyelocytic leukemia cell line HL-60; test: MTT cell growth inhibition, HL-60; assay type: cell-based; conditions: Homo sapiens; HL-60, MTT assay, 72 h; read-out: IC50, growth of tumor cell line
[15] = system: 5-FU-resistant human hepatocellular carcinoma cell line BEL-7402/5-Fu; test: MTT cell growth inhibition, BEL-7402/5-Fu; assay type: cell-based; conditions: Homo sapiens, Bel7402/5-FU, MTT assay, 72 h, read-out: IC50, growth of tumor cell line
From the text: as §3, §4

[16] = system: doxorubicin-resistant hepatocellular carcinoma cell line HepG2/ADM; test: MTT cell growth inhibition, HepG2/ADM; assay type: cell-based, human; conditions: Homo sapiens, MTT assay, 72 h, read-out: IC50, growth of tumor cell line
From the text: as §3, §4

[17] = system: doxorubicin-resistant human breast cancer cell lines MCF-7/ADR; test: MTT cell growth inhibition, MCF-7/ADR; assay type: cell-based; conditions: Homo sapiens, NCI/ADR-RES, MTT assay, 72 h, read-out: IC50, growth of tumor cell line
From the text: as §3, §4

MDA-MB-231 xenografts = MDA-MB-231 xenografts in nude mice; assay type: in vivo, BALB/nu/nu mice; conditions: MDA-MB-231 xenograft nude mice; for Anti-tumor rate (%) / Body weight (g) Post-dose / Tumor weight: 1 mg/kg i.p. every two days, 8 administrations; for Body weight (g) Pre-dose: before dosing
Experimental: (§1) Experimental method: The MDA-MB-231 cells at logarithmic phase were digested and washed twice with PBS. Then, 100 μL cells (1×10^7) were inoculated subcutaneously on the backs of female BALB/nu/nu mice. After tumors grew to 70˜100 mm^3, the mice were divided randomly into saline group (control group), vinca alkaloids groups (VLB, CCRB, CCFN, CCXJ) and vinca alkaloid derivatives groups (JJ-CCJ, BX-CCJ, JJ-CCRB, BX-CCRB, JJ-CCFN, BX-CCFN, JJ-CCXJ and BX-CCXJ), with six mice per group. 1 mg/kg drugs were injected intraperitoneally every two days, meanwhile body weight and tumor sizes were measured. Experiment was ended after 8 times of drug administration, then tumor and organs were stripped. Tumor volumes were measured using the following formula: V=½(ab^2), whereas a refers to the longest diameter and b is the shortest diameter.

HepG2 xenografts = HepG2 xenografts in nude mice; assay type: in vivo; conditions: HepG2 xenograft nude mice; for Anti-tumor rate (%) / Body weight (g) Post-dose / Tumor weight: 1 mg/kg; for Body weight (g) Pre-dose: before dosing
Experimental: as §1
(§2) Tumor xenograft models of HepG2, LOVO, K562 and HL-60 cell lines were performed as the method described above.

LOVO xenografts = LOVO xenografts in nude mice; assay type: in vivo; conditions: LOVO xenograft nude mice; for Anti-tumor rate (%) / Body weight (g) Post-dose / Tumor weight: 1 mg/kg; for Body weight (g) Pre-dose: before dosing
Experimental: as §1, §2

K562 xenografts = K562 xenografts in nude mice; assay type: in vivo; conditions: K562 xenograft nude mice; for Anti-tumor rate (%) / Body weight (g) Post-dose / Tumor weight: 1 mg/kg; for Body weight (g) Pre-dose: before dosing
Experimental: as §1, §2

HL-60 xenografts = HL-60 xenografts in nude mice; assay type: in vivo; conditions: HL-60 xenograft nude mice; for Anti-tumor rate (%) / Body weight (g) Post-dose / Tumor weight: 1 mg/kg; for Body weight (g) Pre-dose: before dosing
Experimental: as §1, §2

SMILES | IC50 [1] [nM] | IC50 [2] [nM] | IC50 [3] [nM] | IC50 [4] [nM] | IC50 [5] [nM] | IC50 [6] [nM] | IC50 [7] [nM] | IC50 [8] [nM] | IC50 [9] [nM] | IC50 [10] [nM] | IC50 [11] [nM] | IC50 [12] [nM] | IC50 [13] [nM] | IC50 [14] [nM] | IC50 [15] [nM] | IC50 [16] [nM] | IC50 [17] [nM] | Anti-tumor rate (%) (MDA-MB-231 xenografts) | Body weight (g) Post-dose (MDA-MB-231 xenografts) [g] | Tumor weight (MDA-MB-231 xenografts) [g] | also measured
CC[C@]12C=CCN3CC[C@@]4(c5cc([C@@]6(C(=O)OC)C[C@@H]7C[C@@H](C(C)(F)F)CN(Cc8c6[nH]c6ccccc86)C7)c(OC)cc5N(C)[C@H]4[C@@](O)(C(=O)NN)[C@@H]1O)[C@@H]32 [JJ-CCFN, hydrazinolyzed vinflunine] | 206 ± 6.79 | 313 ± 7.64 | 198 ± 7.71 | 103 ± 6.37 | 132 ± 6.67 | 304 ± 9.44 | 333 ± 12.5 | 133 ± 6.7 | 98.3 ± 3.19 | 90.8 ± 5.45 | 55.9 ± 7.59 | 132 ± 9.51 | 159 ± 20.4 | 198 ± 19.5 | 166 ± 5.77 | 277 ± 9.67 | 713 ± 25.6 | 75.10** % | 16.3 ± 0.7 | 0.65 ± 0.13 | Body weight (g) Pre-dose (MDA-MB-231 xenografts): 19.7 ± 2.1 g; Anti-tumor rate (%) (HepG2 xenografts): 75.69** %; Body weight (g) Post-dose (HepG2 xenografts): 16.5 ± 0.4 g; Tumor weight (HepG2 xenografts): 0.62 ± 0.19 g; Body weight (g) Pre-dose (HepG2 xenografts): 22.3 ± 1.7 g; Anti-tumor rate (%) (LOVO xenografts): 76.31** %; Body weight (g) Post-dose (LOVO xenografts): 18.9 ± 2.1 g; Tumor weight (LOVO xenografts): 0.68 ± 0.13 g; Body weight (g) Pre-dose (LOVO xenografts): 22.7 ± 1.5 g; Anti-tumor rate (%) (K562 xenografts): 57.74** %; Body weight (g) Post-dose (K562 xenografts): 17.4 ± 0.9 g; Tumor weight (K562 xenografts): 0.71 ± 0.21 g; Body weight (g) Pre-dose (K562 xenografts): 21.5 ± 2.1 g; Anti-tumor rate (%) (HL-60 xenografts): 60.10** %; Body weight (g) Post-dose (HL-60 xenografts): 17.3 ± 0.1 g; Tumor weight (HL-60 xenografts): 0.83 ± 0.13 g; Body weight (g) Pre-dose (HL-60 xenografts): 19.2 ± 1.9 g
CCC1=C[C@@H]2CN(C1)Cc1c([nH]c3ccccc13)[C@@](C(=O)OC)(c1cc3c(cc1OC)N(C)[C@H]1[C@@](O)(C(=O)NN)[C@H](O)[C@]4(CC)C=CCN5CC[C@]31[C@@H]54)C2 [JJ-CCRB, hydrazinolyzed vinorelbine] | 73.1 ± 2.36 | 121 ± 10.3 | 100 ± 5.9 | 89.31 ± 0.71 | 61.3 ± 3.12 | 122 ± 5.75 | 101 ± 7.65 | 89 ± 3.34 | 65.9 ± 3.05 | 60.4 ± 7.01 | 49.7 ± 3.39 | 20.4 ± 2.85 | 32.9 ± 3.27 | 46.8 ± 5.41 | 143 ± 8.57 | 182 ± 4.38 | – | 77.39** % | 16.7 ± 1.4 | 0.59 ± 0.18 | Body weight (g) Pre-dose (MDA-MB-231 xenografts): 21.0 ± 2.7 g; Anti-tumor rate (%) (HepG2 xenografts): 75.29** %; Body weight (g) Post-dose (HepG2 xenografts): 17.0 ± 0.8 g; Tumor weight (HepG2 xenografts): 0.63 ± 0.29 g; Body weight (g) Pre-dose (HepG2 xenografts): 21.9 ± 1.6 g; Anti-tumor rate (%) (LOVO xenografts): 69.69** %; Body weight (g) Post-dose (LOVO xenografts): 16.4 ± 0.7 g; Tumor weight (LOVO xenografts): 0.87 ± 0.16 g; Body weight (g) Pre-dose (LOVO xenografts): 23.2 ± 2.1 g; Anti-tumor rate (%) (K562 xenografts): 59.52** %; Body weight (g) Post-dose (K562 xenografts): 18.2 ± 0.5 g; Tumor weight (K562 xenografts): 0.68 ± 0.20 g; Body weight (g) Pre-dose (K562 xenografts): 21.8 ± 1.4 g; Anti-tumor rate (%) (HL-60 xenografts): 65.38** %; Body weight (g) Post-dose (HL-60 xenografts): 17.1 ± 0.3 g; Tumor weight (HL-60 xenografts): 0.72 ± 0.21 g; Body weight (g) Pre-dose (HL-60 xenografts): 19.5 ± 1.3 g
CC[C@]12C=CCN3CC[C@@]4(c5cc([C@@]6(C(=O)OC)C[C@@H]7C[C@@H](C(C)(F)F)CN(Cc8c6[nH]c6ccccc86)C7)c(OC)cc5N(C)[C@H]4[C@@](O)(C(=O)OC)[C@@H]1OC(C)=O)[C@@H]32 [Vinflunine, reference compound] | 137 ± 4.1 | 146 ± 7.21 | 67.4 ± 3.42 | 32.1 ± 2.17 | 56.7 ± 4.47 | 77 ± 2.74 | 61.3 ± 7.44 | 57.5 ± 3.95 | 31.1 ± 5.34 | 22.3 ± 1.67 | 19.3 ± 2.48 | 39.8 ± 5.29 | 52.4 ± 6.81 | 41.8 ± 6.85 | 45.7 ± 3.98 | 67.1 ± 4.39 | 154 ± 3.95 | – | – | – | –
